Consider 13 compounds from patent US20130172408A1, “Medicaments Based on Dinuclear Arene Ruthenium Complexes Comprising Bridging Thiolato, Selenolato or Alkoxo Ligands” (Universite de Neuchatel, priority 2010, published 2013).

Where “and” joins values, the source holds several entries; their conditions need not be identical. Equal values may be shown once. Read-outs that look alike come from different tables or passages of the source.

Series [1] concerns A2780 human ovarian cancer cells. Briefly: MTT assay, inhibition of cell growth, A2780. It is filed as cell-based. How it is done:
(§1) Human A2780 and A2780cisR ovarian carcinoma cells were obtained from the European Centre of Cell Cultures (ECACC, Salisbury, UK) and maintained in culture as described by the provider. The cells were routinely grown in RPMI 1640 medium with GlutaMAX™ containing 5% foetal calf serum (FCS) and antibiotics (penicillin and streptomycin) at 37° C. and 5% CO2.
(§2) The antiproliferative activity of complexes 9-20 was evaluated against the human ovarian A2780 cancer cell line and its cisplatin-resistant derivative A2780cisR using the MTT assay, which measures mitochondrial dehydrogenase activity as an indication of cell viability. For the evaluation of growth inhibition tests, the cells were seeded in 96-well plates (25×10^3 cells per well) and grown for 24 h in complete medium. Complexes were dissolved in DMSO and added to the required concentration to the cell culture for 72 h incubation. Solutions of the compounds were applied by diluting a freshly prepared stock solution of the corresponding compound in aqueous RPMI medium with GlutaMAX™ (20 mM). Following drug exposure, 3-(4,5-dimethylthiazol-2-yl)-2,5-diphenyltetrazolium bromide (MTT) was added to the cells at a final concentration of 0.25 mg/mL and incubated for 2 h, then the culture medium was aspirated and the violet formazan (artificial chromogenic precipitate of the reduction of tetrazolium salts by dehydrogenases and reductases) dissolved in DMSO. The optical density of each well (96-well plates) was quantified three times in triplicates at 540 nm using a multiwall plate reader (iEMS Reader MF, Labsystems, US), and the percentage of surviving cells was calculated from the ratio of absorbance of treated to untreated cells. The IC50 values for the inhibition of cell growth were determined by fitting the plot of the logarithmic percentage of surviving cells against the logarithm of drug concentration using a linear regression function. The median value and the median absolute deviation were obtained from the Excel™ software (Microsoft™) and those values are reported in Table 2.
(§3) The toxicity of further compounds in accordance with the invention shown in FIGS. 9A and 9B and of the prior art compounds PA1 and PA2 was assessed as described in Example 6.

The test system of series [2] is A2780cisR human ovarian cancer cells (cisplatin-resistant). Briefly: MTT assay, inhibition of cell growth, A2780cisR. It counts as cell-based. How it is done: as §1, §2, §3
Series [3] is described as follows: Stability by 1H NMR spectroscopy. It counts as physicochemical. The note with it: 12 hours at 37° C. in DMSO-d6, in D2O/DMSO-d6 (95:5), and in DMSO-d6 with two drops of RPMI 1640 medium containing 5% foetal calf serum.
Series [4] can be described thus: Catalytic oxidation of cysteine to cystine in aqueous solution.
Series [5] is described as follows: Catalytic oxidation of glutathione to glutathione disulfide in aqueous solution.
Series [6] in a line: Solubility (qualitative). It is filed as physicochemical. As to conditions: water and organic solvents. The text has this: The spectroscopic data for the analogues [18]Cl, [19]Cl and [20]Cl is in excellent agreement with that reported previously Mashima et al., Schacht et al. Chérioux et al., cited above).
Series [7] has as its system PLC/PRF/5 human liver cancer cells. As to conditions: MTT assay, from JP 7089855; cited from earlier work.
The mark [8] stands for this setting: 72 h incubation, MTT, median value (Table 2), read-out: IC50 A2780.
The mark [9] stands for this setting: 72 h incubation, MTT, median value (Table 2), read-out: IC50 A2780cisR.
[10] abbreviates: as described in Example 6 (Table 3), read-out: Average IC50 A2780.
[11] abbreviates: as described in Example 6 (Table 3), read-out: Average IC50 A2780cisR.

On to `CCCCCCCOc1ccc(C(=O)OCCCCc2ccccc2)cc1.CCCCCCCOc1ccc(C(=O)OCCCCc2ccccc2)cc1.[Cl-].[Ru+2].[Ru+2].[S-]c1ccccc1.[S-]c1ccccc1.[S-]c1ccccc1` [[10]Cl, [(C6H6—(CH2)4—O—C(O)—C6H4-p-O—(CH2)6CH3)2Ru2(SPh)3]^+], for which the values for the IC50 in series [1] (setting [8]) and in series [2] (setting [9]) were 4900 nM and 5600 nM, respectively.

Regarding “[Ru2(p-C6Me6)2(p-SC6H4OH)3]^+ [Compound 22]”, the IC50 in series [1] (setting [10]) and in series [2] (setting [11]) was 500 nM each time.

`COc1ccc(C=CC(=O)OCCc2ccccc2)cc1.COc1ccc(C=CC(=O)OCCc2ccccc2)cc1.[Cl-].[Ru+2].[Ru+2].[S-]c1ccccc1.[S-]c1ccccc1.[S-]c1ccccc1` [[11]Cl, [trans-(C6H6—(CH2)2—O—C(O)—CH═CH—C6H4-p-O—CH3)2Ru2(SPh)3]^+]: the concentration for half-maximal inhibition (IC50) is 820 nM in series [1] (setting [8]), 815 nM in series [1] (setting [10]), 1360 nM in series [2] (setting [9]) and 1360 nM in series [2] (setting [11]).

Consider `Cc1c(C)c(C)c(C)c(C)c1C.Cc1c(C)c(C)c(C)c(C)c1C.[Cl-].[Ru+2].[Ru+2].[S-]c1ccccc1.[S-]c1ccccc1.[S-]c1ccccc1` [[19]Cl, [(C6Me6)2Ru2(SPh)3]^+], for which the IC50 in series [1] (setting [8]) is 400 nM; in series [1] (setting [10]) it was 433 nM; in series [2] (setting [9]), 1200 nM; in series [2] (setting [11]) it was 1200 nM.

For `CC1=C(C)C(C)C(C)=C1C.CC1=C(C)C(C)C(C)=C1C.Sc1ccccc1.Sc1ccccc1.Sc1ccccc1.[Ru+3].[Ru+3]` [PA1, [(CsMes)2Ru2(p-SC6H5)3]^+, reference compound], the results for the IC50 in series [1] (setting [10]) and in series [2] (setting [11]) were 3050 nM and 2190 nM, respectively.

In the case of “[(p-^iPrC6H4Me)2Ru2(S-p-C6H4Me)3]^+ [[20]C1]”, the IC50 stood at 130 nM in series [1] (setting [8]), 130 nM in series [1] (setting [10]), 80 nM in series [2] (setting [9]) and 77 nM in series [2] (setting [11]). Further, in series [3], the “Stability (1H NMR signals)” value was “stable under these conditions”. Further, the “Catalysis of the reaction of Cysteine (Cys) to form Cystine” value in series [4] is recorded as “very high efficiency”. For the same compound, in series [5], the “Catalysis of the reaction of Glutathione (GSH) to form glutathione disulfide (GSSG)” value is recorded as “very high efficiency”.

As for [(C6H6)2Ru2(SPh)3]^+ [[17]C1], the IC50 in series [1] (setting [8]) is 380 nM; in series [1] (as described in Example 6 (Table 3), listed as 17, read-out: Average IC50 A2780), 240 nM and 377 nM; in series [2] (setting [9]), 480 nM; in series [2] (as described in Example 6 (Table 3), listed as 17, read-out: Average IC50 A2780cisR), 253 nM and 477 nM. Moreover, the Solubility entry in series [6] was “soluble in water and in organic solvents”.

With `Cc1ccc(C(C)C)cc1.Cc1ccc(C(C)C)cc1.[Cl-].[Ru+2].[Ru+2].[S-]c1ccccc1.[S-]c1ccccc1.[S-]c1ccccc1` [[18]C1, [(p-^iPrC6H4Me)2Ru2(SPh)3]^+], the IC50 in series [1] (setting [8]) turned out to be 240 nM; in series [2] (setting [9]), 250 nM.

Consider `CC1=C(C)C(C)C(C)=C1C.CC1=C(C)C(C)C(C)=C1C.Cc1ccc(S)cc1.Cc1ccc(S)cc1.Cc1ccc(S)cc1.[Ru+3].[Ru+3]` [PA2, [(CsMe5)2Ru2(p-SC6H4Me)3]^+, reference compound], for which the values for the IC50 in series [1] (setting [10]) and in series [2] (setting [11]) were 1930 nM and 1550 nM, respectively.

Consider `COc1ccc(C=CC(=O)OCCCCc2ccccc2)cc1.COc1ccc(C=CC(=O)OCCCCc2ccccc2)cc1.[Cl-].[Ru+2].[Ru+2].[S-]c1ccccc1.[S-]c1ccccc1.[S-]c1ccccc1` [[12]Cl, [trans-(C6H6—(CH2)4—O—C(O)—CH═CH—C6H4-p-O—CH3)2Ru2(SPh)3]^+], for which the IC50 was found to be 490 nM in series [1] (setting [8]), 420 nM in series [1] (setting [10]), 560 nM in series [2] (setting [9]) and 545 nM in series [2] (setting [11]).

For “[Ru2(p-MeC6H4Pr^i)2(p-SC6H4OH)3]^+ [Compound 21]”, the IC50 turned out to be 533 nM in series [1] (setting [10]) and 1470 nM in series [2] (setting [11]).

`Cc1c(C)c(C)[c-](C)c1C.Cc1c(C)c(C)[c-](C)c1C.[Ru+3].[Ru+3].[S-]c1ccccc1.[S-]c1ccccc1.[S-]c1ccccc1` [PA1, [(CsMes)2Ru2(p-SC6H5)3]^+, reference compound]: the IC50 in series [7] was 131 µg/mL.

As for “[(C6H6—(CH2)2—O—C(O)—C6H4-p-O—(CH2)6CH3)2Ru2(SPh)3]^+ [[9]Cl]”, the IC50 in series [1] (setting [8]) is 2200 nM; in series [2] (setting [9]), 2700 nM.
